≈ marks a conversion by molar mass, not a printed value.
Key:
S. aureus TOUR = test: agar-dilution MIC test; type: cell-based
From the text: Isosensitest broth (Oxoid) and Todd-Hewitt broth (Difco) are used for growing staphylococci and streptococci, respectively. […]

E. coli SKF 12140 = test: agar-dilution MIC test; type: cell-based
S. aureus ATCC 6538 = test: agar-dilution MIC test; type: cell-based; conditions: 18-24 h at 37° C.
Method: (§1) Isosensitest broth (Oxoid) and Todd-Hewitt broth (Difco) are used for growing staphylococci and streptococci, respectively. Broth cultures are diluted so that the final inoculum is about 10^4 colony forming units/ml (CFU/ml).

S. faecalis ATCC 7080 = test: agar-dilution MIC test; type: cell-based
Method: as §1

[1] = system: S. pyogenes C 203 SKF 13400; test: agar-dilution MIC test; type: cell-based
Method: as §1

[2] = system: S. epidermidis ATCC 12228; test: agar-dilution MIC test; type: cell-based
Method: as §1

S. pneumoniae UC 41 = test: agar-dilution MIC test; type: cell-based
Method: as §1

pKa by titration = type: physicochemical; conditions: methylcellulose ®/water 4:1 (v/v), excess 0.01 M hydrogen chloride, titrated with 0.01 M NaOH
Method: ^(c) the samples are dissolved in methylcellulose ®/water 4:1
(v/v), an excess of 0.01 M hydrogen chloride in the same mixture is added
thereto and the resulting solution is titrated with 0.01 M NaOH in the […]

[3] = S. aureus TOUR + 30% bovine serum

MIC (S. aureus TOUR; S. aureus TOUR (10^3 CFU/ml)) [µg/mL] | MIC (S. aureus TOUR; S. aureus TOUR (10^6 CFU/ml)) [µg/mL] | MIC (S. aureus TOUR; [3]) [µg/mL] | MIC (E. coli SKF 12140) [µg/mL] | MIC (S. aureus ATCC 6538) [µg/mL] | MIC (S. faecalis ATCC 7080) [µg/mL] | MIC [1] [µg/mL] | MIC [2] [µg/mL] | MIC (S. pneumoniae UC 41) [µg/mL] | pKa (pKa by titration) | SMILES
0.25 | 0.5 | 0.5 | 128 | 0.25 | 0.5 | 0.5 | 0.016 | 0.5 | 6.68 | CCOC(=O)C1NC(=O)C2NC(=O)C(NC(=O)C3NC(=O)C4NC(=O)C(Cc5ccc(c(Cl)c5)Oc5cc3cc(c5O)Oc3ccc(cc3Cl)C2O[C@@H]2O[C@H](CO)[C@@H](O)[C@H](O)[C@H]2NC(C)=O)NC(=O)C(N)c2ccc(O)c(c2)Oc2cc(O)cc4c2)c2ccc(O)c(c2)-c2c(O)cc(O)cc21.Cl (some centres unmarked) [Example 2, antibiotic L 17046 ethyl ester, hydrochloride]
0.125 | 0.25 | 0.5 | 128 | 0.25 | 0.5 | 0.25 | 0.016 | 0.5 | 6.65 | CCCCOC(=O)C1NC(=O)C2NC(=O)C(NC(=O)C3NC(=O)C4NC(=O)C(Cc5ccc(c(Cl)c5)Oc5cc3cc(c5O)Oc3ccc(cc3Cl)C2O[C@@H]2O[C@H](CO)[C@@H](O)[C@H](O)[C@H]2NC(C)=O)NC(=O)C(N)c2ccc(O)c(c2)Oc2cc(O)cc4c2)c2ccc(O)c(c2)-c2c(O)cc(O)cc21.Cl (some centres unmarked) [Example 3, antibiotic L 17046 n-butyl ester, hydrochloride]
0.25 | 0.5 | 0.5 | 128 | 0.25 | 0.5 | 0.25 | 0.064 | 0.5 | 6.67 | CC(=O)N[C@H]1[C@H](OC2c3ccc(c(Cl)c3)Oc3cc4cc(c3O)Oc3ccc(cc3Cl)CC3NC(=O)C(N)c5ccc(O)c(c5)Oc5cc(O)cc(c5)C(NC3=O)C(=O)NC4C(=O)NC3C(=O)NC2C(=O)NC(C(=O)OCCCl)c2cc(O)cc(O)c2-c2cc3ccc2O)O[C@H](CO)[C@@H](O)[C@@H]1O.Cl (some centres unmarked) [Example 4, antibiotic L 17046 2-chloroethyl ester, hydrochloride]
0.125 | 0.125 | 0.5 | 128 | 0.25 | 0.25 | 0.25 | 0.064 | 0.125 | 6.66 | CC(=O)N[C@H]1[C@H](OC2c3ccc(c(Cl)c3)Oc3cc4cc(c3O)Oc3ccc(cc3Cl)CC3NC(=O)C(N)c5ccc(O)c(c5)Oc5cc(O)cc(c5)C(NC3=O)C(=O)NC4C(=O)NC3C(=O)NC2C(=O)NC(C(=O)OCCCCCl)c2cc(O)cc(O)c2-c2cc3ccc2O)O[C@H](CO)[C@@H](O)[C@@H]1O.Cl (some centres unmarked) [Example 5, antibiotic L 17046 4-chlorobutyl ester, hydrochloride]
0.125 (≈ 0.083 µM) | 0.25 (≈ 0.166 µM) | 4 | 64 (≈ 42.5 µM) | – | 0.25 (≈ 0.166 µM) | 0.125 (≈ 0.083 µM) | 0.063 (≈ 0.0418 µM) | 0.5 (≈ 0.332 µM) | – | CC(=O)N[C@H]1[C@H](OC2c3ccc(c(Cl)c3)Oc3cc4cc(c3O)Oc3ccc(cc3Cl)CC3NC(=O)C(N)c5ccc(O)c(c5)Oc5cc(O)cc(c5)C(NC3=O)C(=O)NC4C(=O)NC3C(=O)NC2C(=O)NC(C(=O)OCc2ccc(C)cc2)c2cc(O)cc(O)c2-c2cc3ccc2O)O[C@H](CO)[C@@H](O)[C@@H]1O (some centres unmarked) [Example 10, antibiotic L 17046 (4-methyl)-benzyl ester]

SMILES | MIC (S. aureus TOUR; S. aureus TOUR (10^3 CFU/ml)) [µg/mL] | MIC (S. aureus TOUR; S. aureus TOUR (10^6 CFU/ml)) [µg/mL] | MIC (S. aureus TOUR; [3]) [µg/mL] | MIC (E. coli SKF 12140) [µg/mL] | MIC (S. aureus ATCC 6538) [µg/mL] | MIC (S. faecalis ATCC 7080) [µg/mL] | MIC [1] [µg/mL] | MIC [2] [µg/mL] | MIC (S. pneumoniae UC 41) [µg/mL] | pKa (pKa by titration)
COC(=O)C1NC(=O)C2NC(=O)C(NC(=O)C3NC(=O)C4NC(=O)C(Cc5ccc(c(Cl)c5)Oc5cc3cc(c5O)Oc3ccc(cc3Cl)C2O[C@@H]2O[C@H](CO)[C@@H](O)[C@H](O)[C@H]2NC(C)=O)NC(=O)C(N)c2ccc(O)c(c2)Oc2cc(O)cc4c2)c2ccc(O)c(c2)-c2c(O)cc(O)cc21.Cl (some centres unmarked) [Example 1, antibiotic L 17046 methyl ester, hydrochloride] | 0.125 | 0.5 | 0.25 | 128 | 0.125 | 0.5 | 0.5 | 0.016 | 0.5 | 6.70
CC(=O)N[C@H]1[C@H](OC2c3ccc(c(Cl)c3)Oc3cc4cc(c3O)Oc3ccc(cc3Cl)CC3NC(=O)C(N)c5ccc(O)c(c5)Oc5cc(O)cc(c5)C(NC3=O)C(=O)NC4C(=O)NC3C(=O)NC2C(=O)NC(C(=O)OCc2ccccc2)c2cc(O)cc(O)c2-c2cc3ccc2O)O[C@H](CO)[C@@H](O)[C@@H]1O.O=C(O)C(F)(F)F (some centres unmarked) [Example 8, antibiotic L 17046 benzyl ester trifluoroacetate] | 0.125 | 0.125 | 4 | 64 | – | 0.125 | 0.125 | 0.063 | 0.25 | –
CC(=O)N[C@H]1[C@H](OC2c3ccc(c(Cl)c3)Oc3cc4cc(c3O)Oc3ccc(cc3Cl)CC3NC(=O)C(N)c5ccc(O)c(c5)Oc5cc(O)cc(c5)C(NC3=O)C(=O)NC4C(=O)NC3C(=O)NC2C(=O)NC(C(=O)OCCO)c2cc(O)cc(O)c2-c2cc3ccc2O)O[C@H](CO)[C@@H](O)[C@@H]1O.O=C(O)C(F)(F)F (some centres unmarked) [Example 12, antibiotic L 17046 (2-hydroxy)ethyl ester trifluroacetate] | 0.125 | 0.125 | 0.5 | 128 | – | 0.25 | 0.25 | 0.063 | 1 | –
